Here are results for ten molecules from patent US5502035A, “N-terminus modified analogs of LHRH” (Tap Holdings Inc., priority 1994, dated 1996).

Non-standard residues stand in square brackets, D forms with d. Residues, ends and D or L forms follow the SMILES beside them. Groups on a side chain read outwards from the residue. *: point of attachment. Shikimoyl = O=C(C1=C[C@@H](O)[C@@H](O)[C@H](O)C1)*; dPhe(4-Cl) = N[C@H](Cc1ccc(Cl)cc1)C(=O)O; d2Nal = N[C@H](Cc1ccc2ccccc2c1)C(=O)O; d(hCit) = NC(=O)NCCCC[C@@H](N)C(=O)O; Lys(iPr) = CC(C)NCCCC[C@H](N)C(=O)O; NMeY = CN[C@@H](Cc1ccc(O)cc1)C(=O)O; dCit = NC(=O)NCCC[C@@H](N)C(=O)O; hArg = N=C(N)NCCCC[C@H](N)C(=O)O; d3Pal = N[C@H](Cc1cccnc1)C(=O)O; Nicotinoyl = O=C(c1cccnc1)*; X1 = O=C([C@@H]1CCCO1)*; azaGly = NNC(=O)O; βAla = NCCC(=O)O

The target of this test is T1, LHRH (Rattus norvegicus, UniProt P30969).
T1 construct: endogenous in cells; host or cells: rat pituitary cells (own knowledge of the cited Haviv 1989 method)
T1 sequence (P30969 1-327): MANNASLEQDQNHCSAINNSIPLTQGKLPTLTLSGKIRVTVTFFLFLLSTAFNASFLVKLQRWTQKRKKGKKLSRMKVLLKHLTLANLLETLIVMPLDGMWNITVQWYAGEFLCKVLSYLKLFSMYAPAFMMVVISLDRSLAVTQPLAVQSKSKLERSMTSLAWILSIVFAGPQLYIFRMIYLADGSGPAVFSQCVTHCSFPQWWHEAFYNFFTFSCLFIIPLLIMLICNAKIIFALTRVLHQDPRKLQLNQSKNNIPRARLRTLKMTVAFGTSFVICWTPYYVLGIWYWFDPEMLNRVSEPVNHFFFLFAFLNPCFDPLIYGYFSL
Put plainly: in vitro test for LHRH antagonist potency (pA2). In kind it is cell-based. The conditions noted are these: negative logarithm of the antagonist concentration required to shift the response curve produced by the agonist leuprolide to two-fold higher concentration. The procedure, abridged: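 Rat LHRH receptor in vitro functional test; pA2 = negative log of the antagonist concentration shifting the leuprolide agonist response curve to two-fold higher concentration.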
On to `CC(C)C[C@H](NC(=O)[C@@H](CCCCNC(=O)NNC(=O)c1cccnc1)NC(=O)[C@H](Cc1ccc(O)cc1)N(C)C(=O)[C@H](CO)NC(=O)[C@@H](Cc1cccnc1)NC(=O)[C@@H](Cc1ccc(Cl)cc1)NC(=O)[C@@H](Cc1ccc2ccccc2c1)NC(=O)C1=C[C@@H](O)[C@@H](O)[C@H](O)C1)C(=O)N[C@@H](CCCCNC(C)C)C(=O)N1CCC[C@H]1C(=O)N[C@H](C)C(N)=O` [Example 30b, N-Shik-D2Nal-D4ClPhe-D3Pal-Ser-NMeTyr-DLys(Azagly-Nic)-Leu-Lys(Isp)-Pro-DAlaNH2] (Shikimoyl-[d2Nal][dPhe(4-Cl)][d3Pal]S[NMeY][dK]([azaGly-Nicotinoyl])L[Lys(iPr)]P[dA]-NH2), for which the Kb was 0.0295 nM.

Turning to `CC(C)C[C@H](NC(=O)[C@@H](CCCCNC(=O)c1cccnc1)NC(=O)[C@H](CCCCNC(=O)c1cccnc1)NC(=O)[C@H](CO)NC(=O)[C@@H](Cc1cccnc1)NC(=O)[C@@H](Cc1ccc(Cl)cc1)NC(=O)[C@@H](Cc1ccc2ccccc2c1)NC(=O)c1cccnc1)C(=O)N[C@@H](CCCCNC(C)C)C(=O)N1CCC[C@H]1C(=O)N[C@H](C)C(N)=O` [Example 74, N-Nicotinyl-D2Nal-D4ClPhe-D3Pal-Ser-Lys(Nic)-DLys(Nic)-Leu-Lys(Isp)-Pro-DAlaNH2] (Nicotinoyl-[d2Nal][dPhe(4-Cl)][d3Pal]SK(Nicotinoyl)[dK](Nicotinoyl)L[Lys(iPr)]P[dA]-NH2), the antagonist dissociation constant (Kb) is 0.0562 nM.

`CC(C)C[C@H](NC(=O)[C@@H](CCCCNC(=O)NNC(=O)c1cccnc1)NC(=O)[C@H](Cc1ccc(O)cc1)N(C)C(=O)[C@H](CO)NC(=O)[C@@H](Cc1cccnc1)NC(=O)[C@@H](Cc1ccc(Cl)cc1)NC(=O)[C@@H](Cc1ccc2ccccc2c1)NC(=O)CNC(=O)c1cccnc1)C(=O)N[C@@H](CCCCNC(C)C)C(=O)N1CCC[C@H]1C(=O)N[C@H](C)C(N)=O` [Example 9, N-Nicotinyl-Gly-D2Nal-D4ClPhe-D3Pal-Ser-NMeTyr-DLys(Azagly-Nicotinyl)-Leu-Lys(N-epsilon-Isopropyl) -Pro-DAlaNH2] (Nicotinoyl-G[d2Nal][dPhe(4-Cl)][d3Pal]S[NMeY][dK]([azaGly-Nicotinoyl])L[Lys(iPr)]P[dA]-NH2): the Kb is 0.0347 nM. For the molecule `CC(C)C[C@H](NC(=O)[C@@H](CCCCNC(=O)C1=C[C@@H](O)[C@@H](O)[C@H](O)C1)NC(=O)[C@H](Cc1ccc(O)cc1)N(C)C(=O)[C@H](CO)NC(=O)[C@@H](Cc1cccnc1)NC(=O)[C@@H](Cc1ccc(Cl)cc1)NC(=O)[C@@H](Cc1ccc2ccccc2c1)NC(=O)[C@@H](CCCCNC(=O)c1cccnc1)NC(=O)c1cccnc1)C(=O)N[C@@H](CCCNC(=N)N)C(=O)N1CCC[C@H]1C(=O)N[C@H](C)C(N)=O` [Example 14g, N-Nicotinyl-DLys(Nic)-D2Nal-D4ClPhe-D3Pal-Ser-NMeTyr-DLys(Shik)-Leu-Arg-Pro-DAlaNH2] (Nicotinoyl-[dK](Nicotinoyl)[d2Nal][dPhe(4-Cl)][d3Pal]S[NMeY][dK](Shikimoyl)LRP[dA]-NH2), the antagonist dissociation constant (Kb) is 0.11 nM. As for `CC(C)C[C@H](NC(=O)[C@@H](CCCCNC(=O)c1cccnc1)NC(=O)[C@H](Cc1ccc(O)cc1)N(C)C(=O)[C@H](CO)NC(=O)[C@@H](Cc1cccnc1)NC(=O)[C@@H](Cc1ccc(Cl)cc1)NC(=O)[C@@H](Cc1ccc2ccccc2c1)NC(=O)CNC(=O)C1=C[C@@H](O)[C@@H](O)[C@H](O)C1)C(=O)N[C@@H](CCCNC(=N)N)C(=O)N1CCC[C@H]1C(=O)N[C@H](C)C(N)=O` [Example 15a, N-Shikimyl-Gly-D2Nal-D4ClPhe-D3Pal-Ser-NMeTyr-DLys(Nic)-Leu-Arg-Pro-DAlaNH2] (Shikimoyl-G[d2Nal][dPhe(4-Cl)][d3Pal]S[NMeY][dK](Nicotinoyl)LRP[dA]-NH2), the antagonist dissociation constant (Kb) was 0.0631 nM. On to `CC(C)C[C@H](NC(=O)[C@@H](CCCNC(N)=O)NC(=O)[C@H](Cc1ccc(O)cc1)N(C)C(=O)[C@H](CO)NC(=O)[C@@H](Cc1cccnc1)NC(=O)[C@@H](Cc1ccc(Cl)cc1)NC(=O)[C@@H](Cc1ccc2ccccc2c1)NC(=O)CNC(=O)c1cccnc1)C(=O)N[C@@H](CCCNC(=N)N)C(=O)N1CCC[C@H]1C(=O)N[C@H](C)C(N)=O` [Example 13c, N-Nicotinyl-Gly-D2Nal-D4ClPhe-D3Pal-Ser-NMeTyr-DCit-Leu-Arg-Pro-DAlaNH2] (Nicotinoyl-G[d2Nal][dPhe(4-Cl)][d3Pal]S[NMeY][dCit]LRP[dA]-NH2), for which the antagonist dissociation constant (Kb) is 0.00355 nM.

With `CC(C)C[C@@H](NC(=O)[C@@H](CCCCNC(=O)c1cccnc1)NC(=O)[C@H](Cc1ccc(O)cc1)N(C)C(=O)[C@H](CO)NC(=O)[C@@H](Cc1cccnc1)NC(=O)[C@@H](Cc1ccc(Cl)cc1)NC(=O)[C@@H](Cc1ccc2ccccc2c1)NC(=O)CNC(=O)[C@@H]1CCCO1)C(=O)N[C@@H](CCCCNC(C)C)C(=O)N1CCC[C@H]1C(=O)N[C@H](C)C(N)=O` [Example 87, N (S)-2-Tetrahydrofuroyl-Gly-D2Nal-D4ClPhe-D3Pal-Ser-NMeTyr-DLys(N-epsilon-Nicotinyl) -DLeu-Lys(N-epsilon-Isopropyl)-Pro-DAlaNH2], the Kb was 0.269 nM. `CC(C)C[C@H](NC(=O)[C@@H](CCCCNC(=O)C1=C[C@@H](O)[C@@H](O)[C@H](O)C1)NC(=O)[C@H](Cc1ccc(O)cc1)N(C)C(=O)[C@H](CO)NC(=O)[C@@H](Cc1cccnc1)NC(=O)[C@@H](Cc1ccc(Cl)cc1)NC(=O)[C@@H](Cc1ccc2ccccc2c1)NC(=O)CCNC(=O)c1cccnc1)C(=O)N[C@@H](CCCCNC(=N)N)C(=O)N1CCC[C@H]1C(=O)N[C@H](C)C(N)=O` [Example 28, N-Nicotinyl-3Aminopropionyl-D2Nal-D4ClPhe-D3Pal-Ser-NMeTyr-DLys(Shik)-Leu-Harg-Pro-DAlaNH2] ({Nicotinoyl-βAla}-[d2Nal][dPhe(4-Cl)][d3Pal]S[NMeY][dK](Shikimoyl)L[hArg]P[dA]-NH2): the Kb is 0.00977 nM. On to `CC(C)C[C@H](NC(=O)[C@@H](CCCCNC(N)=O)NC(=O)[C@H](Cc1ccc(O)cc1)NC(=O)[C@H](CO)NC(=O)[C@@H](Cc1cccnc1)NC(=O)[C@@H](Cc1ccc(Cl)cc1)NC(=O)[C@@H](Cc1ccc2ccccc2c1)NC(=O)CNC(=O)[C@@H]1CCCO1)C(=O)N[C@@H](CCCNC(=N)N)C(=O)N1CCC[C@H]1C(=O)N[C@H](C)C(N)=O` [Example 95, N-(S)-2-Tetrahydrofuroyl-Gly-D2Nal-D4ClPhe-D3Pal-Ser-Tyr-DHcit-Leu-Arg-Pro- DAlaNH2] (X1-G[d2Nal][dPhe(4-Cl)][d3Pal]SY[d(hCit)]LRP[dA]-NH2), for which the antagonist dissociation constant (Kb) was 0.00759 nM.

With `CC(C)C[C@H](NC(=O)[C@@H](CCCCNC(=O)c1cccnc1)NC(=O)[C@H](CCCCNC(=O)c1cccnc1)NC(=O)[C@H](CO)NC(=O)[C@@H](Cc1cccnc1)NC(=O)[C@@H](Cc1ccc(Cl)cc1)NC(=O)[C@@H](Cc1ccc2ccccc2c1)NC(=O)C1=C[C@@H](O)[C@@H](O)[C@H](O)C1)C(=O)N[C@@H](CCCCNC(C)C)C(=O)N1CCC[C@H]1C(=O)N[C@H](C)C(N)=O` [Example 73, N-Shikimyl-D2Nal-D4ClPhe-D3Pal-Ser-Lys(Nic)-DLys(Nic)-Leu-Lys(Isp)-Pro-DAlaNH2] (Shikimoyl-[d2Nal][dPhe(4-Cl)][d3Pal]SK(Nicotinoyl)[dK](Nicotinoyl)L[Lys(iPr)]P[dA]-NH2), the Kb was 0.0447 nM.

A word on the Kb: it is the affinity of an antagonist, worked out from how it opposes an agonist.
